The values that follow come from US4206235A, “Novel 2,5-dihalophenyl-β-substituted sulfone fungicides” (priority 1976, dated 1980).

Assay [1] concerns Venturia inaequalis. The assay can be described thus: Control of apple scab in greenhouse test, apple seedlings. Format: in vivo. To be noted: Barrat & Horsfall Scale, 1 = 0%, 12 = 100% leaf scabbed, 15 days after inoculation.
The test system of assay [2] is Venturia inaequalis. The assay can be described thus: Comparative performance of 2 compounds and 2 commercial fungicides, spray treated plants in greenhouse. Format: in vivo.
Assay [3] relates to Fusarium oxysporum sp. f.lycopersici. The experiment in a line: Fungitoxicity in culture media (agar), growth inhibition. Conditions: 50% inhibition of growth, read-out: ED50 (the source's name). The format is cell-based. How it is done:
(§1) Acetone solutions of the compound were mixed with an aliquot of distilled water and the fine suspension obtained was mixed with cooled but melted agar medium and poured into Petri dishes.
(§2) The tested fungi were grown on the solidified media. Growth of the fungus was measured and percent inhibition was calculated by comparing with the appropriate acetone-water controls. Media were usually Martin's or potato-dextrose agar media.
(§3) ED50 = effective dose, sufficient for the 50% inhibition of growth of the fungus, expressed in p.p.m.

Another assay deals with Rhizoctonia solani. Described as above. The format is cell-based. Conditions: 50% inhibition of growth, read-out: ED50 (the source's name). How it is done: as §1, §2, §3
A further assay deals with Rhizoctonia bataticola. The description is as above. The format is cell-based. To be noted: Macrophomina phaseolina, 50% inhibition of growth, read-out: ED50 (the source's name). How it is done: as §1, §2, §3
Another assay has as its system Rhizopus stolonifer. The description is as above. Conditions: 50% inhibition of growth, read-out: ED50 (the source's name). Format: cell-based. How it is done: as §1, §2, §3
For another assay, the system named is Aspergillus niger. The assay can be described thus: Halo test on plasticized PVC sheeting. Format: cell-based. Details: key to growth under the test sample (GUS): +: no reduction in growth; ±: slight reduction in growth; .-+.: moderate reduction in growth; -: complete reduction in growth.
A further assay deals with Paecilomyces varioti. The assay can be described thus: Halo test on plasticized PVC sheeting. The format is cell-based. On the set-up: key to growth under the test sample (GUS): +: no reduction in growth; ±: slight reduction in growth; .-+.: moderate reduction in growth; -: complete reduction in growth.
The subject of a further assay is Aspergillus flavus. The assay can be described thus: Halo test on plasticized PVC sheeting. The format is cell-based. Details: key to growth under the test sample (GUS): +: no reduction in growth; ±: slight reduction in growth; .-+.: moderate reduction in growth; -: complete reduction in growth.
The subject of a further assay is Alternaria tenuis. The experiment in a line: Halo test on plasticized PVC sheeting. The format is cell-based. On the set-up: key to growth under the test sample (GUS): +: no reduction in growth; ±: slight reduction in growth; .-+.: moderate reduction in growth; -: complete reduction in growth. Conditions: for Zone of growth inhibition (halo): brackets = growth partially suppressed.

The subject of assay [4] is Cladosporium cladosporoides. The assay can be described thus: Halo test on plasticized PVC sheeting. The format is cell-based. Details: key to growth under the test sample (GUS): +: no reduction in growth; ±: slight reduction in growth; .-+.: moderate reduction in growth; -: complete reduction in growth.
In another assay the test system is Trichoderma viride. The assay can be described thus: Halo test on plasticized PVC sheeting. On the set-up: key to growth under the test sample (GUS): +: no reduction in growth; ±: slight reduction in growth; .-+.: moderate reduction in growth; -: complete reduction in growth. The format is cell-based.
Another assay concerns Sclerotinia rolfsil. The assay can be described thus: Fungitoxicity in culture media (agar), growth inhibition. Conditions: 50% inhibition of growth, read-out: ED50 (the source's name). The format is cell-based. The method, then:
as §1, §2, §3

In a further assay the test system is Pythium aphanidermatum. The description is as above. Format: cell-based. Conditions: 50% inhibition of growth, read-out: ED50 (the source's name). The method, then:
as §1, §2, §3

A further assay concerns Penicillium funiculosum. The assay can be described thus: Halo test on plasticized PVC sheeting. The format is cell-based. Details: key to growth under the test sample (GUS): +: no reduction in growth; ±: slight reduction in growth; .-+.: moderate reduction in growth; -: complete reduction in growth.
For assay [5], the system named is mixed spore suspension of Aspergillus flavus, Aspergillus niger, Paecilomyces varioti, Penicillium funiculosum, Trichoderma viride, Alternaria tenuis …. The assay can be described thus: Weight Loss Test of PVC sheeting.
Setting [6] is: Test No.1, inoculum 2.5 ×10^5 /ml, 50 p.p.m.
Setting [7] is: Test No.1, inoculum 2.5 ×10^5 /ml, 100 p.p.m.
Setting [8] is: Test No.1, inoculum 2.5 ×10^5 /ml, 500 p.p.m.
[9] abbreviates: Test No.2, inoculum 5.0 ×10^5 /ml, 50 p.p.m.
Setting [10] is: Test No.2, inoculum 5.0 ×10^5 /ml, 100 p.p.m.
Where [11] appears, read: Test No.2, inoculum 5.0 ×10^5 /ml, 500 p.p.m.
The mark [12] stands for this setting: 0.5% in PVC sheeting, brackets = growth partially suppressed.

Values after ≈ are worked out from the molar mass of the structure shown. Where only a bound is given, the exact number is not on record here.

Consider `O=S(=O)(CC(Cl)(Cl)Cl)c1cc(Br)ccc1Br` [Example 8, 2,5-dibromophenyl-β,β',β"-trichloroethyl sulfone], for which the Mean disease severity with Venturia inaequalis [1] (50 p.p.m.) is reported as 6.0; in the assay with Venturia inaequalis [1] (100 p.p.m.), 2.0; in the assay on Venturia inaequalis [1] (500 p.p.m.), 1.3. The Disease control is reported as 86.4% in the assay on Venturia inaequalis [2] (setting [6]); 97.4% with Venturia inaequalis [2] (setting [7]); 100% in the assay with Venturia inaequalis [2] (setting [8]); 99.9% in the assay on Venturia inaequalis [2] (setting [9]); 100% in the assay on Venturia inaequalis [2] (setting [10]); 99.9% in the assay with Venturia inaequalis [2] (setting [11]).
Take `O=S(=O)(CC(Cl)c1ccccc1)c1cc(Cl)ccc1Cl` (stereo not drawn) [Example 5, 2,5-dichlorophenyl-β-chloro-β-phenylethyl sulfone]: the figures for the Mean disease severity in the assay on Venturia inaequalis [1] (50 p.p.m.), in the assay with Venturia inaequalis [1] (100 p.p.m.) and in the assay on Venturia inaequalis [1] (500 p.p.m.) were 6.0, 2.3 and 3.5, respectively. Also, the values for the IC50 (in assay [3]; in the assay with Rhizoctonia solani; in the assay with Rhizoctonia bataticola) were > 50 µg/mL, 20 µg/mL (≈ 57.2 µM) and 50 µg/mL (≈ 143 µM), respectively.
As for `O=S(=O)(CC(Cl)Cl)c1cc(Br)ccc1Br` [Example 7, 2,5-dibromophenyl-β,β'-dichloroethyl sulfone], the values for the Mean disease severity in the assay with Venturia inaequalis [1] (50 p.p.m.), in the assay with Venturia inaequalis [1] (100 p.p.m.) and in the assay on Venturia inaequalis [1] (500 p.p.m.) were 5.7, 5.3 and 5.0, respectively. Moreover, the IC50 in [3] stood at 50 µg/mL (≈ 126 µM); in the assay with Rhizoctonia solani it was 5 µg/mL (≈ 12.6 µM); in the assay on Rhizopus stolonifer it was 50 µg/mL (≈ 126 µM); with Rhizoctonia bataticola it was 20 µg/mL (≈ 50.4 µM).
For the compound `O=S(=O)(CC(Cl)Cl)c1cc(Cl)ccc1Cl` [Example 1, 2,5-dichlorophenyl-β,β'-dichloroethyl sulfone], the “growth under the test sample (GUS)” value in the assay with Aspergillus niger (0.5% in PVC sheeting) was “.-+”; in the assay with Aspergillus niger (1% in PVC sheeting), “-”; with Paecilomyces varioti (0.5% in PVC sheeting), “+”; in the assay with Paecilomyces varioti (1% in PVC sheeting) it was “-”; in the assay on Aspergillus flavus (0.5% in PVC sheeting) it was “.-+”; in the assay with Aspergillus flavus (1% in PVC sheeting), “.-+”. Moreover, the “growth under the test sample (GUS)” value is “-” in the assay with Alternaria tenuis (0.5% in PVC sheeting); “-” with Alternaria tenuis (1% in PVC sheeting); “-” in assay [4] (0.5% in PVC sheeting); “-” in assay [4] (1% in PVC sheeting); “+” with Trichoderma viride (0.5% in PVC sheeting); “+” in the assay with Trichoderma viride (1% in PVC sheeting). In addition, the figures for the “growth under the test sample (GUS)” value in the assay on Penicillium funiculosum (0.5% in PVC sheeting) and in the assay with Penicillium funiculosum (1% in PVC sheeting) were “+” and “.-+”, respectively. Moreover, the “Zone of growth inhibition (halo)” value in the assay with Aspergillus niger (1% in PVC sheeting) is given as 6 millimetres; in the assay on Paecilomyces varioti (0.5% in PVC sheeting), 0 millimetres; with Paecilomyces varioti (1% in PVC sheeting), 15 millimetres; in the assay on Aspergillus flavus (0.5% in PVC sheeting) it was 0 millimetres; in the assay on Aspergillus flavus (1% in PVC sheeting) it was 0 millimetres; in the assay with Alternaria tenuis (0.5% in PVC sheeting) it was 11 millimetres. The “Zone of growth inhibition (halo)” value in the assay with Alternaria tenuis (1% in PVC sheeting) is on record as 17 millimetres; in [4] (setting [12]) it was 5 millimetres; in assay [4] (1% in PVC sheeting) it was 12 millimetres; in the assay on Trichoderma viride (0.5% in PVC sheeting), 0 millimetres; in the assay with Trichoderma viride (1% in PVC sheeting), 0 millimetres; with Penicillium funiculosum (1% in PVC sheeting), 2.5 millimetres. The Mean disease severity with Venturia inaequalis [1] (50 p.p.m.) was 3.5; with Venturia inaequalis [1] (100 p.p.m.), 3.0; in the assay on Venturia inaequalis [1] (500 p.p.m.) it was 1.0. Besides, the IC50 in [3] amounted to 50 µg/mL (≈ 162 µM); in the assay on Rhizoctonia solani, 5 µg/mL (≈ 16.2 µM); in the assay with Rhizopus stolonifer, 50 µg/mL (≈ 162 µM); with Sclerotinia rolfsil it was 10 µg/mL (≈ 32.5 µM); in the assay on Pythium aphanidermatum it was 10 µg/mL (≈ 32.5 µM); in the assay with Rhizoctonia bataticola, 5 µg/mL (≈ 16.2 µM). Besides, the Disease control in the assay with Venturia inaequalis [2] (setting [6]) is listed as 63.6%; with Venturia inaequalis [2] (setting [7]), 97.4%; with Venturia inaequalis [2] (setting [8]) it was 100%; in the assay with Venturia inaequalis [2] (setting [9]) it was 98.2%; with Venturia inaequalis [2] (setting [10]), 99.5%; with Venturia inaequalis [2] (setting [11]), 100%.
`O=S(=O)(CC(Cl)Br)c1cc(Cl)ccc1Cl` (stereo not drawn) [Example 6, 2,5-dichlorophenyl-β-chloro-β-bromoethyl sulfone]: the figures for the Mean disease severity with Venturia inaequalis [1] (50 p.p.m.), in the assay with Venturia inaequalis [1] (100 p.p.m.) and in the assay on Venturia inaequalis [1] (500 p.p.m.) were 4.0, 1.0 and 1.0, respectively. Further, the IC50 in [3] was > 50 µg/mL; in the assay with Rhizoctonia solani, 10 µg/mL (≈ 28.4 µM); in the assay on Rhizoctonia bataticola it was 20 µg/mL (≈ 56.7 µM).
As for `O=S(=O)(CC(Cl)(Cl)Cl)c1cc(Cl)ccc1Cl` [Example 2, 2,5-dichlorophenyl,β,β',β"-trichloroethyl sulfone], the “growth under the test sample (GUS)” value in the assay with Aspergillus niger (0.5% in PVC sheeting), with Aspergillus niger (1% in PVC sheeting), in the assay with Paecilomyces varioti (0.5% in PVC sheeting), in the assay with Paecilomyces varioti (1% in PVC sheeting), with Aspergillus flavus (0.5% in PVC sheeting) and in the assay with Aspergillus flavus (1% in PVC sheeting) was “+” in each case. The “growth under the test sample (GUS)” value in the assay with Alternaria tenuis (0.5% in PVC sheeting) is given as “.-+”; with Alternaria tenuis (1% in PVC sheeting), “-”; in [4] (0.5% in PVC sheeting), “.-+”; in [4] (1% in PVC sheeting), “-”; in the assay with Trichoderma viride (0.5% in PVC sheeting) it was “+”; in the assay with Trichoderma viride (1% in PVC sheeting) it was “+”. The “growth under the test sample (GUS)” value in the assay with Penicillium funiculosum (0.5% in PVC sheeting) and with Penicillium funiculosum (1% in PVC sheeting) was “+” each time. In addition, the “Zone of growth inhibition (halo)” value with Aspergillus niger (setting [12]), with Aspergillus niger (1% in PVC sheeting), in the assay with Paecilomyces varioti (0.5% in PVC sheeting), with Paecilomyces varioti (1% in PVC sheeting), with Aspergillus flavus (0.5% in PVC sheeting) and in the assay on Aspergillus flavus (1% in PVC sheeting) was 0 millimetres in each case. Also, the “Zone of growth inhibition (halo)” value in assay [4] (1% in PVC sheeting) is on record as 8 millimetres; in the assay with Trichoderma viride (0.5% in PVC sheeting), 0 millimetres; in the assay on Trichoderma viride (1% in PVC sheeting), 0 millimetres; in the assay with Penicillium funiculosum (setting [12]) it was 0 millimetres; in the assay with Penicillium funiculosum (1% in PVC sheeting) it was 0 millimetres. The Mean disease severity is listed as 5.0 in the assay on Venturia inaequalis [1] (50 p.p.m.), 2.9 with Venturia inaequalis [1] (100 p.p.m.) and 1.3 with Venturia inaequalis [1] (500 p.p.m.). Besides, the IC50 in assay [3] came to 50 µg/mL (≈ 146 µM); with Rhizoctonia solani, 10 µg/mL (≈ 29.2 µM); with Sclerotinia rolfsil it was 10 µg/mL (≈ 29.2 µM); with Pythium aphanidermatum it was 5 µg/mL (≈ 14.6 µM); with Rhizoctonia bataticola it was 10 µg/mL (≈ 29.2 µM).
Turning to `[Cl][Hg][Cl]` [mercuric chloride, reference compound], in [5], the “changes in weight (in words)” value is listed as “only negligible changes in weight”.
